Here are results for 45 molecules from patent US20070190523A1 (priority 2002, published 2007).

The EC50 is the concentration needed to bring the measured effect to its halfway point.

The test system of assay [1] is mutant HIV-1 with I84V/L90M mutations. Format: cell-based.
Assay [2] has as its system wild-type HIV-1 strain IIIB. The assay is described as follows: microbe, parasite or virus in culture. Format: cell-based.
The target of another assay is WT (Human immunodeficiency virus type 1 group M subtype B, UniProt P04585). Briefly: cell-based. Further details: species or system HIV.
[3] abbreviates: fold difference in EC50 vs wild type, class symbols.
[4] abbreviates: Human immunodeficiency virus 1, IIIB, MT2, Table 10, class symbols.
[5] abbreviates: Human immunodeficiency virus 1, IIIB, MT2.

Each structure is given as a SMILES string. Read-outs that look alike come from different tables or passages of the source.

With `CCOC(=O)C(C)OP(=O)(Cc1ccc2c(c1)CCN(CC(NC(=O)OC1COC3OCCC13)C(O)CN(CC(C)C)S(=O)(=O)c1ccc(OC)cc1)C2)Oc1ccccc1` (stereo not drawn), the I84V/L90M fold change result in assay [1] (setting [3]) is listed as “+ (>3 to ≦10)”. This molecule yielded an EC50 in assay [2] (setting [4]) of 50 to 500 nM.
As to `CCOP(=O)(COc1ccc2c(c1)CCN(CC(NC(=O)OC1COC3OCCC13)C(O)CN(CC(C)C)S(=O)(=O)c1ccc(OC)cc1)C2)OCC` (stereo not drawn), in assay [1] (setting [3]), the I84V/L90M fold change result was “+ (>3 to ≦10)”. In assay [2] (setting [5]), this molecule showed an EC50 of 50 to 500 nM.
Take `COc1ccc(S(=O)(=O)N(CC(C)C)CC(O)C(Cc2ccc(C)cc2)NC(=O)OC2COC3OCCC23)cc1` (stereo not drawn): the I84V/L90M fold change result in assay [1] (I84V/L90M mutant) is given as “+ (>3 to ≦10)”. This molecule also displayed an EC50 in assay [2] (setting [5]) of under 50 nM.
Regarding `COc1ccc(S(=O)(=O)N(CC(C)C)CC(O)C(Cc2ccc(NCP(=O)(O)O)cc2)NC(=O)OC2COC3OCCC23)cc1` (stereo not drawn), the EC50 in assay [2] (read-out: EC50) is 50 to 500 nM.
Still for that read-out and setting: the figure for `Cc1ccc(C(=O)N[C@@H](Cc2ccc(OCP(=O)(Oc3ccccc3)Oc3ccccc3)cc2)[C@H](O)CN(CC(C)C)S(=O)(=O)c2ccc(N)cc2)cc1O` is 500 to 5000 nM.
On the same count and under the same terms, the figure for `CC(C)CN(C[C@@H](O)[C@H](Cc1ccc(OCP(=O)(OCc2ccccc2)OC(C)C(=O)OCc2ccccc2)cc1)NC(=O)O[C@H]1CO[C@H]2OCC[C@H]21)S(=O)(=O)c1ccc(OCc2ccccc2)cc1` (stereo partly drawn) is 500 to 5000 nM.
`CCOP(=O)(CCCNC(=O)c1cccc(CN2C(=O)N(Cc3cccc(N)c3)C(Cc3ccccc3)C(O)C(O)C2Cc2ccccc2)c1)OCC` (stereo not drawn) came in with an EC50 on WT of 176 nM.
`Nc1n[nH]c2ccc(CN3C(=O)N(Cc4cccc(OCP(=O)(OCc5ccccc5)OCc5ccccc5)c4)C(Cc4ccccc4)C(O)C(O)C3Cc3ccccc3)cc12` (stereo not drawn) had an EC50 at WT of 898 nM.
In the case of `CCOP(=O)(COc1cccc(CN2C(=O)N(Cc3ccc4[nH]nc(N)c4c3)C(Cc3ccccc3)C(O)C(O)C2Cc2ccccc2)c1)OCC` (stereo not drawn), it took 665 nM to reach a half-maximal effect on WT (EC50).
Same read-out and setting: the figure for `Nc1n[nH]c2ccc(CN3C(=O)N(Cc4ccc(OCP(=O)(OCc5ccccc5)OCc5ccccc5)cc4)C(Cc4ccccc4)C(O)C(O)C3Cc3ccccc3)cc12` (stereo not drawn) is 2700 nM; for `CCOP(=O)(COc1ccc(CN2C(=O)N(Cc3ccc4[nH]nc(N)c4c3)C(Cc3ccccc3)C(O)C(O)C2Cc2ccccc2)cc1)OCC` (stereo not drawn) it is 2480 nM; for `CCOP(=O)(COCCCCN1C(=O)N(Cc2ccc3[nH]nc(N)c3c2)C(Cc2ccccc2)C(O)C(O)C1Cc1ccccc1)OCC` (stereo not drawn) [CH2OCH2PO3Et2] it is 119 nM.
Still for that read-out and setting: the figure for `Nc1n[nH]c2ccc(CN3C(=O)N(CCCCOCP(=O)(O)O)C(Cc4ccccc4)C(O)C(O)C3Cc3ccccc3)cc12` (stereo not drawn) [CH2OCH2PO3H2] is 1760 nM; for `CCCCN1C(=O)N(Cc2ccc3[nH]nc(N)c3c2)C(Cc2ccccc2)C(O)C(O)C1Cc1ccccc1` (stereo not drawn) [DMP-851] it is 54 nM.
As to `CCCCOC(=O)C(Cc1ccccc1)NP(=O)(COc1ccc(CC(NC(=O)OC2COC3OCCC23)C(O)CN(CC(C)C)S(=O)(=O)c2ccc(OC)cc2)cc1)NC(Cc1ccccc1)C(=O)OCCCC` (stereo not drawn) [Example 16j], the EC50 in assay [2] (read-out: Anti-HIV-1 Cell Culture Activity EC50) was 35 ± 7 nM.
As for `CCOP(=O)(COc1ccc(CC2C(O)C(O)C(Cc3ccc(OC)cc3)N(Cc3cccc(N)c3)C(=O)N2Cc2cccc(N)c2)cc1)OCC` (stereo not drawn) [OCH3, Ph-mNH2, OCH2PO3Et2], at WT, a half-maximal response (EC50) required 63 nM.
In turn, `CC(C)CN(CC(O)C(Cc1ccc(O)cc1)NC(=O)OC1COC2OCCC12)S(=O)(=O)c1ccc(OCP(=O)(O)O)cc1` (stereo not drawn) [OH, OH] gave a 50% effective concentration (EC50) in assay [2] (setting [5]) of over 5000 nM.
On to `CCOP(=O)(COc1ccc(CC(NC(=O)OC2CCOC2)C(O)CN(CC(C)C)S(=O)(=O)c2ccc(OC)cc2)cc1)OCC` (stereo not drawn) [OMe, OEt], for which, in assay [1] (I84V/L90M mutant), the I84V/L90M fold change entry is reported as “++ (>10 to ≦30)”. The EC50 in assay [2] (setting [5]) was under 50 nM.
For the molecule `COc1ccc(S(=O)(=O)N(CC(C)C)CC(O)C(Cc2ccc(OCP(=O)(OCc3ccccc3)OCc3ccccc3)cc2)NC(=O)OC2COC3OCCC23)cc1` (stereo not drawn) [drawing 602 R1=OBn R2=OBn], the I84V/L90M fold change result in assay [1] (setting [3]) is given as “− (≦3)”.
As to `CCOP(=O)(COc1ccc(CC(NC(=O)OC2COC3OCCC23)C(O)CN(CC(C)C)S(=O)(=O)c2ccc(OC)cc2)cc1)OCC` (stereo not drawn) [drawing 602 R1=OEt R2=OEt], the I84V/L90M fold change entry in assay [1] (setting [3]) is on record as “− (≦3)”.
Still for that read-out and setting: as for `COc1ccc(S(=O)(=O)N(CC(C)C)CC(O)C(Cc2ccc(OCP(=O)(O)O)cc2)NC(=O)OC2COC3OCCC23)cc1` (stereo not drawn) [drawing 602 R1=OH R2=OH], the entry is “− (≦3)”.
Still for that read-out and setting: the entry for `COc1ccc(S(=O)(=O)N(CC(C)C)CC(O)C(Cc2ccc(OCP(=O)(OC(C)C)OC(C)C)cc2)NC(=O)OC2COC3OCCC23)cc1` (stereo not drawn) [drawing 602 R1=OiPr R2=OiPr] is “− (≦3)”; for `CCOP(=O)(OCC)c1ccc(CC(NC(=O)OC2COC3OCCC23)C(O)CN(CC(C)C)S(=O)(=O)c2ccc(OC)cc2)cc1` (stereo not drawn) [drawing 604 R1=OEt R2=OEt] it is “− (≦3)”.
`CCOC(=O)C(CC)NP(=O)(COc1ccc(CC(NC(=O)OC2COC3OCCC23)C(O)CN(CC(C)C)S(=O)(=O)c2ccc(OC)cc2)cc1)NC(CC)C(=O)OCC` (stereo not drawn) [drawing 606 R1=Aba-Et R2=Aba-Et]: in assay [2] (setting [5]), the EC50 was under 50 nM.
Consider `CCNP(=O)(COc1ccc(CC(NC(=O)OC2COC3OCCC23)C(O)CN(CC(C)C)S(=O)(=O)c2ccc(OC)cc2)cc1)NCC` (stereo not drawn) [drawing 606 R1=NHEt R2=NHEt], for which the I84V/L90M fold change entry in assay [1] (setting [3]) is listed as “− (≦3)”.
`CCOC(=O)C(NP(=O)(COc1ccc(CC(NC(=O)OC2COC3OCCC23)C(O)CN(CC(C)C)S(=O)(=O)c2ccc(OC)cc2)cc1)NC(C(=O)OCC)C(C)C)C(C)C` (stereo not drawn) [drawing 606 R1=Val-Et R2=Val-Et]: in assay [1] (setting [3]), the I84V/L90M fold change result is given as “− (≦3)”.
`CCOC(=O)COP(=O)(COc1ccc(CC(NC(=O)OC2COC3OCCC23)C(O)CN(CC(C)C)S(=O)(=O)c2ccc(OC)cc2)cc1)OCC(=O)OCC` (stereo not drawn) [drawing 607 R1=Glc-Et R2=Glc-Et]: in assay [1] (setting [3]), the I84V/L90M fold change result is listed as “− (≦3)”. Further, in assay [2] (setting [5]), the EC50 lay in the range of 500 to 5000 nM.
As to `CCOC(=O)C(C)OP(=O)(COc1ccc(CC(NC(=O)OC2COC3OCCC23)C(O)CN(CC(C)C)S(=O)(=O)c2ccc(OC)cc2)cc1)OC(C)C(=O)OCC` (stereo not drawn) [drawing 607 R1=Lac-Et R2=Lac-Et], the I84V/L90M fold change entry in assay [1] (setting [3]) is reported as “− (≦3)”.
Still for that read-out and setting: as for `COc1ccc(S(=O)(=O)N(CC(C)C)CC(O)C(Cc2ccc(OCP(=O)(OC(C)C(=O)OC(C)C)OC(C)C(=O)OC(C)C)cc2)NC(=O)OC2COC3OCCC23)cc1` (stereo not drawn) [drawing 607 R1=Lac-iPr R2=Lac-iPr], the entry is “− (≦3)”.
Consider `CCOC(=O)C(C)NP(=O)(COc1ccc(CC(NC(=O)OC2COC3OCCC23)C(O)CN(CC(C)C)S(=O)(=O)c2ccc(OC)cc2)cc1)OCc1ccccc1` (stereo not drawn) [drawing 608 R1=OBn R2=Ala-Et], for which the I84V/L90M fold change result in assay [1] (setting [3]) is “− (≦3)”.
Same read-out and setting: as for `COc1ccc(S(=O)(=O)N(CC(C)C)CC(O)C(Cc2ccc(OCP(=O)(NC(C)C(=O)OC(C)C)Oc3ccccc3)cc2)NC(=O)OC2COC3OCCC23)cc1` (stereo not drawn) [drawing 608 R1=OPh R2=(D)Ala-iPr], the entry is “− (≦3)”; as for `CCCCOC(=O)C(C)NP(=O)(COc1ccc(CC(NC(=O)OC2COC3OCCC23)C(O)CN(CC(C)C)S(=O)(=O)c2ccc(OC)cc2)cc1)Oc1ccccc1` (stereo not drawn) [drawing 608 R1=OPh R2=Ala-Bu], “− (≦3)”; as for `COC(=O)C(C)NP(=O)(COc1ccc(CC(NC(=O)OC2COC3OCCC23)C(O)CN(CC(C)C)S(=O)(=O)c2ccc(OC)cc2)cc1)Oc1ccccc1` (stereo not drawn) [drawing 608 R1=OPh R2=Ala-Me], “− (≦3)”.
Same read-out and setting: the entry for `COc1ccc(S(=O)(=O)N(CC(C)C)CC(O)C(Cc2ccc(OCP(=O)(NC(C)C(=O)OC(C)C)Oc3ccccc3)cc2)NC(=O)OC2COC3OCCC23)cc1` (stereo not drawn) [drawing 608 R1=OPh R2=Ala-iPr] is “− (≦3)”; for `CCCCOC(=O)CNP(=O)(COc1ccc(CC(NC(=O)OC2COC3OCCC23)C(O)CN(CC(C)C)S(=O)(=O)c2ccc(OC)cc2)cc1)Oc1ccccc1` (stereo not drawn) [drawing 608 R1=OPh R2=Gly-Bu] it is “− (≦3)”; for `COc1ccc(S(=O)(=O)N(CC(C)C)CC(O)C(Cc2ccc(OCP(=O)(O)OC(C)C(=O)O)cc2)NC(=O)OC2COC3OCCC23)cc1` [drawing 609 R1=OH R2=(R)Lac-OH] it is “− (≦3)”.
Consider `COc1ccc(S(=O)(=O)N(CC(C)C)CC(O)C(Cc2ccc(OCP(=O)(O)OC(C)C(=O)O)cc2)NC(=O)OC2COC3OCCC23)cc1` (stereo not drawn) [drawing 609 R1=OH R2=Lac-OH], for which the I84V/L90M fold change entry in assay [1] (setting [3]) is recorded as “− (≦3)”.
For `CCOC(=O)COP(=O)(COc1ccc(CC(NC(=O)OC2COC3OCCC23)C(O)CN(CC(C)C)S(=O)(=O)c2ccc(OC)cc2)cc1)Oc1ccccc1` (stereo not drawn) [drawing 609 R1=OPh R2=Glc-Et], the I84V/L90M fold change result in assay [1] (setting [3]) is “− (≦3)”. The concentration for a half-maximal effect (EC50) in assay [2] (setting [4]) is under 50 nM.
With `CCCCOC(=O)C(C)OP(=O)(COc1ccc(CC(NC(=O)OC2COC3OCCC23)C(O)CN(CC(C)C)S(=O)(=O)c2ccc(OC)cc2)cc1)Oc1ccccc1` (stereo not drawn) [drawing 609 R1=OPh R2=Lac-Bu], the I84V/L90M fold change result in assay [1] (setting [3]) is listed as “− (≦3)”.
Still for that read-out and setting: the entry for `COc1ccc(S(=O)(=O)N(CC(C)C)CC(O)C(Cc2ccc(OCP(=O)(Oc3ccccc3)OC(C)C(=O)OC(C)C)cc2)NC(=O)OC2COC3OCCC23)cc1` (stereo not drawn) [drawing 609 R1=OPh R2=Lac-iPr] is “− (≦3)”; for `CCOP(=O)(CON=Cc1ccc(CC(NC(=O)OC2COC3OCCC23)C(O)CN(CC(C)C)S(=O)(=O)c2ccc(OC)cc2)cc1)OCC` (stereo not drawn) [drawing 615 R1=Et R2=Et] it is “− (≦3)”.
In turn, `Nc1n[nH]c2ccc(CN3C(=O)N(Cc4cccc(OCP(=O)(O)O)c4)C(Cc4ccccc4)C(O)C(O)C3Cc3ccccc3)cc12` (stereo not drawn) [m-OCH2PO3H2] had an EC50 at WT of over 12000 nM.
On the same count and under the same terms, the figure for `Nc1n[nH]c2ccc(CN3C(=O)N(Cc4cccc(OCP(=O)(O)Oc5ccccc5)c4)C(Cc4ccccc4)C(O)C(O)C3Cc3ccccc3)cc12` (stereo not drawn) [m-OCH2PO3HPh] is 1750 nM.
Still for that read-out and setting: as for `Nc1n[nH]c2ccc(CN3C(=O)N(Cc4cccc(OCP(=O)(Oc5ccccc5)Oc5ccccc5)c4)C(Cc4ccccc4)C(O)C(O)C3Cc3ccccc3)cc12` (stereo not drawn) [m-OCH2PO3Ph2], the figure is 1350 nM; as for `Nc1n[nH]c2ccc(CN3C(=O)N(Cc4cccc(O)c4)C(Cc4ccccc4)C(O)C(O)C3Cc3ccccc3)cc12` (stereo not drawn) [m-OH], 151 nM.
